“Also recorded” adds a separate entry of the source.
Tests used:
THP-1 cells = assay: Viability of acute myeloid leukaemia cell line THP-1; format: cell-based, human; conditions: 5-30 μM, 48 h
Procedure: THP-1 cells were seeded in medium at 10,000 cells/well, as indicated by the dotted line. Cells were incubated for 48 hours in medium supplemented with water, C3A-Pen, P7-Pen, P7-A4-Pen or P7-N4-Pen. The peptides were included at concentrations ranging from 5-30 μM. At 48 hours cells were counted. […] The results with other peptides were less clear-cut. Results are based on 3 biological replicates, error bars show standard deviation of mean.
(§1) The peptides were tested against the SW480 cell line in the presence and absence of LPS.

SW480 cells = assay: Proliferation of SW480 colon cancer cells; format: cell-based, human; conditions: 15 μM, 48 h, with or without LPS 100 ng/ml
Procedure: SW480 cells were seeded and incubated in medium alone or supplemented with water, 15 μM penetratin, 15 μM P7-Pen or 15 μM P7-N4-Pen. Under each condition cells were incubated both without LPS and with 100 ng/ml LPS. Cells were incubated for 48 hours then counted. […] The presence of LPS made no difference to the effect of the peptides on proliferation. Results are based on 3 biological replicates, error bars show standard deviation of mean.
(§2) SW480 (ATCC CCL-228) and Jurkat (ATCC Clone E6-1; TIB-152) cells were cultured in RPMI 1640 (Sigma-Aldrich, Schnelldorf, Germany) supplemented with 10% heat-inactivated FCS, penicillin/streptomycin (Life Technologies) and 20 mM L-Glutamine. THP-1 cells (ATCC TIB-202) were cultured in RPMI-1640 (high-glucose, ATCC) supplemented with 10% heat inactivated foetal calf serum (FCS), 100 nM penicillin/streptomycin and 5 μM β-mercaptoethanol (Sigma). THP-1 cells were differentiated with 60 ng/ml phorbol 12-myristate 13-acetate (PMA, Sigma) for 72 h, followed by 24 or 48 h in medium without PMA.
as §1

[1] = test system: JJN-3 multiple myeloma cells; format: cell-based, human; conditions: JJN-3, 4 μM peptide
Source text: Minor effects on the proliferation of the IH-1 and RPMI 8226 cell lines are seen. […] The number of viable cells was detected based on quantitation of ATP by luminescent signal in correlation to a standard curve prepared for each cell line. Results are based on 3-5 biological replicates for each condition, error bars show standard deviation of mean.
(§3) Multiple myeloma cells JJN-3 (DSMZ (Germany) no. ACC 541), ANBL-6 (Cellosaurus accession number CVCL_5425, obtained from Dr Diane Jelinek, Mayo Clinic, Rochester, Minn.), INA-6 (Cellosaurus accession number CVCL_5209, obtained from Dr M. Gramatzki, University of Erlangen-Nurnberg, Erlangen, Germany), RPMI-8226 (ATCC CCL-155), and IH-1 (Cellosaurus accession number CVCL_WZ44, established from the pleural effusion of a myeloma patient by Myeloma research group, IKOM, NTNU, Trondheim, Norway) were grown in RPMI-1640 (Sigma-Aldrich Norway, Oslo, Norway) supplemented with 100 nM penicillin/streptomycin and 10% FCS, and for ANBL-6, IH-1 and INA-6 cells 2 ng/ml recombinant IL-6 (Gibco, Thermo Fisher Scientific, Waltham, Mass., USA). Murine multiple myeloma Vk*MYC cells were obtained from M.D. Leif Bergsagel (Mayo Clinic, Richester, Minn., USA) and cultured in RPMI-1640 supplemented with 2% human serum (B^+, The blood bank, St Olav's Hospital, Trondheim, Norway), 100 nM penicillin/streptomycin, L-Glutamine (2 mM) and recombinant IL-6 (1 ng/ml). HEK293T (ATCC CRL-3216) were cultured in DMEM with 10% FCS. THP-1 TRAM knockout (KO) and TLR4 KO cell lines, and matching lentivirally transduced control cell lines, were differentiated in the same way as wild type (WT) THP-1. TRAM KO THP-1 cell line is described in Yurchenko et al. (supra).
To evaluate the potential impact of the P7 peptide on proliferation of tumour cells of lymphoid origin, we performed a CellTiter-Glo Luminescent Cell Viability Assay to address proliferation of several multiple myeloma (MM) cell lines. […]

[2] = test system: primary Vk*MYC multiple myeloma cells; assay: Primary Vk*MYC multiple myeloma cells; format: cell-based, mouse; conditions: 7.5 or 15 μM, 48 h
Procedure: Isolated primary cells were seeded then incubated for 48 hours in growth medium supplemented with water, penetratin, P7-Pen, P7-A4-Pen or P7-N4-Pen, then counted. Peptides were included at concentrations of 7.5 or 15 μM. […] Results are based on 3 biological replicates, error bars show standard deviation of mean.
as §3
Primary multiple myeloma cells were isolated from Vk*Myc mice and provided by the Multiple Myeloma Research Group, IKOM, NTNU. The peptides P7-Pen, P7-N4-Pen and P7-A4-Pen were applied to the cultured primary cells and effect of the peptides on cell growth analysed as previously.

[3] = test system: ANBL-6 multiple myeloma cells; assay: CellTiter-Glo cell viability assay, ANBL-6; format: cell-based
Procedure: Minor effects on the proliferation of the IH-1 and RPMI 8226 cell lines are seen. Cells were seeded at the level shown (left-hand bar of each set) then incubated in medium containing water, 10 μM penetratin or 10 μM P7-A4-Pen for 48 hr (except for INA-6 cells, which were incubated with 12.5 μM penetratin or 12.5 μM P7-A4-Pen). The number of viable cells was detected based on quantitation of ATP by luminescent signal in correlation to a standard curve prepared for each cell line. Results are based on 3-5 biological replicates for each condition, error bars show standard deviation of mean.
Cells were seeded and then incubated in growth medium alone or supplemented with water, DMSO, 15 μM penetratin or 15 μM investigational peptide. The growth medium only and H2O—, DMSO- and penetratin-supplemented cultures constituted controls.
The solid horizontal lines show the amount of cells originally seeded. In (A) ANBL-6 cells were seeded at a level of 10,000 cells/well, then incubated in medium supplemented with water, the control peptide C3A-Pen, P7-Pen, P7-A4-Pen, P7-N4-Pen or P7-K2-Pen for 48 hours. The peptides were included at concentrations of 5, 10, 12.5, 15, 20 or 30 μM. Cells were counted at 48 hours. In (B), ANBL-6 cells were seeded at a level of 5000 cells/well, then incubated in medium supplemented with water, P6-Pen, P-P6-Pen, P7-D4-Pen or P7-A4-Pen for 48 hours. Peptides were included at concentrations of 5, 10 or 20 μM. Cells were counted at 48 hours. […] Results are based on 3 biological replicates, error bars show standard deviation of mean.
as §3
To evaluate the potential impact of the P7 peptide on proliferation of tumour cells of lymphoid origin, we performed a CellTiter-Glo Luminescent Cell Viability Assay to address proliferation of several multiple myeloma (MM) cell lines. For the assay, cells were incubated for 48 h in respective media containing either solvent (water), 10 μM control peptide (Pen) or the SLAMF1-derived peptide P7-A4-Pen for 48 h (FIG. 32) (with the exception of the INA-6 cells which were incubated with 12.5 μM control peptide or P7-A4-Pen). […] This effect could be mediated by P7-A4-Pen-induced inhibition of signalling pathways that are crucial for driving proliferation and/or survival of MM tumour cells.

Jurkat cells = assay: Proliferation of Jurkat T cell leukaemia cells; format: cell-based, human; conditions: 15 μM or 20 μM, 48 h
Procedure: Jurkat cells were seeded at 5000 cells/well (as indicated by dotted line) and incubated in medium supplemented with water, penetratin, P7-Pen or P7-N4-Pen. Peptides were included at 15 μM (A) or 20 μM (B). Cells were incubated for 48 hours then counted. […] Results are based on 3 biological replicates, error bars show standard deviation of mean.
as §2, §1

## Ac-ITVNASVTLTGRQIKIWFQNRRMKWKK-NH2 [Peptide P7-N4-Pen]
THP-1 cells
  effect on THP-1 cell number: clear dose-dependent cytotoxic effect; also recorded: anti-proliferative effect
SW480 cells
  effect on proliferation of SW480 cells: a degree of anti-proliferative effect
[1]
  combination effect with melphalan at low melphalan concentrations: synergistic effect
[2]
  effect on primary multiple myeloma cells: strong cytotoxic effect
[3]; 15 μM
  effect on proliferation of ANBL-6 cells: anti-proliferative effect
[3]; 5, 10, 12.5, 15, 20 and 30 μM or 5, 10 and 20 μM, 48 h
  anti-proliferative activity over a concentration series: clear concentration-dependent effect
Jurkat cells
  effect on proliferation of Jurkat cells: modest but clear anti-proliferative effect
